Consider three compounds from US5317101A, “Tricyclic heterocycles” (Imperial Chemical Industries PLC, priority 1991, dated 1994).

Assay [1] deals with T1, EP1 receptors (PGE2 -induced contractions of the ileum) (Cavia porcellus, UniProt A0A286XHJ6).
T1 construct: ileum was immersed in oxygenated Krebs solution; from tissue; host or cells: guinea pig ileum
T1 sequence (A0A286XHJ6 1-405): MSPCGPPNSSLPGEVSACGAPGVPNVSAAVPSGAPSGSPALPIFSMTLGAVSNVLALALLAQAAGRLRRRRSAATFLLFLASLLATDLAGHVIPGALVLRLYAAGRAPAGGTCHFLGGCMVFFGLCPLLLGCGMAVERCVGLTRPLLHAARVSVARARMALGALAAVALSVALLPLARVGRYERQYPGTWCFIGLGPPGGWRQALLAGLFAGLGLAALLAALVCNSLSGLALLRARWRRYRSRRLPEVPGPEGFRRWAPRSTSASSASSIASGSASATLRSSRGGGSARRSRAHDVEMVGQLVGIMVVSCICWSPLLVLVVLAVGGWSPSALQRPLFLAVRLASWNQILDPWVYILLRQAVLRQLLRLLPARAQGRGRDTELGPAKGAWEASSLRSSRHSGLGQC
As to the kind of experiment: Test (a): in-vitro guinea pig ileum assay, inhibition of PGE2-induced contractions. Type of assay: cell-based. As to conditions: PGE2-induced contraction, read-out: pA2 value (converted). The method, then:
(a) an in-vitro guinea pig ileum assay which assesses the inhibitory properties of a test compound against PGE2 -induced contractions of the ileum; ileum was immersed in oxygenated Krebs solution containing indomethacin (4 μg/ml) and atropine (1 μM) and which was maintained at 37° C.; the ileum was subject to a tension of 1 g; a control dose response curve for PGE2 -induced contraction of the ileum was obtained; test compound (dissolved in dimethylsulphoxide) was added to the Krebs solution and a dose response curve for the PGE2 - induced contraction of the ileum in the presence of the test compound was obtained; the pA2 value for the test compound was calculated;
Prostanoid receptors and in particular receptors for PGE2 have been tentatively characterised by Kennedy et al. (Advances in Prostaglandin, Thromboxane and Leukotriene Research, 1983, 11, 327).

Assay [2] has as its system abdominal constriction induced by the intraperitoneal administration of phenylbenzoquinone. The assay can be described thus: Test (b): in-vivo assay in mice, PBQ-induced abdominal constriction. The settings on record: 100 mg/kg, oral dosing. An excerpt: (b) an in-vivo assay in mice which assesses the inhibitory properties of a test compound against abdominal constriction induced by the intraperitoneal administration of phenylbenzoquinone (hereinafter PBQ) using the procedure disclosed in European Patent Application No. 0218077.

The test system of assay [3] is PGE2 receptors. The settings on record: guinea pig ileum or dog fundus; cited from earlier work.

Molecules are shown by their SMILES.

For `O=C(O)c1ccc(CN2Cc3ccccc3Oc3ccc(Cl)cc32)s1` [5-(8-chloro-10,11-dihydrodibenzo[b,f][1,4]oxazepin-10-ylmethyl)thiophene-2-carboxylic acid], the Kb in assay [1] was 31.6 nM.

Regarding `O=C(O)c1ccc(CN2Cc3ccccc3Nc3ccccc32)s1` [5-(10,11-dihydrodibenzo[b,e][1,4]diazepin-10-ylmethyl)thiophene-2-carboxylic acid], the Kb in assay [1] is 25.1 nM. Besides, in assay [2], the “activity in Test (b)” value is reported as “significant activity”.

In the case of `CC(=O)NNC(=O)N1Cc2ccccc2Oc2ccc(Cl)cc21` [SC-19220], the “effect on PGE2 action” value in assay [3] is listed as “blocks the effect of PGE2”.
